We go through 3 compounds from publication PMC6333288, “The crystal structure of the N-acetylglucosamine 2-epimerase from Nostoc sp. KVJ10 reveals the true dimer” (Acta Crystallographica. Section D, Structural Biology, 2019).

What is called stoichiometry N is a count of units in the complex or per binding partner.

One assay has as its target T1, nAGE10 (Nostoc sp. KVJ10, UniProt A0A452CSU8).
T1 construct: synthetic codon-optimised gene, C-terminal hexahistidine tag (no cleavage described), expressed in E. coli BL21 Star (DE3); dimer by gel filtration; residues Tyr3-Leu391 resolved, 157-164 missing
Put plainly: coupled AGE/NAL (AsNAL) reaction, Neu5Ac by thiobarbituric acid assay. Type of assay: biochemical. As to conditions: HEPES pH 8.0, 25 °C, 1 h.

Assay [1] has as its target N-acetylglucosamine 2-epimerase from Nostoc sp. KVJ10 (Nostoc sp. KVJ10). Nature of the assay: SEC; gel-filtration chromatography on a Superdex 75 10/300 GL column; oligomerization state of purified nAGE10. Background: SEC sorts molecules by how far they enter the pores of the column.

T1 sequence (A0A452CSU8 entry or part of it): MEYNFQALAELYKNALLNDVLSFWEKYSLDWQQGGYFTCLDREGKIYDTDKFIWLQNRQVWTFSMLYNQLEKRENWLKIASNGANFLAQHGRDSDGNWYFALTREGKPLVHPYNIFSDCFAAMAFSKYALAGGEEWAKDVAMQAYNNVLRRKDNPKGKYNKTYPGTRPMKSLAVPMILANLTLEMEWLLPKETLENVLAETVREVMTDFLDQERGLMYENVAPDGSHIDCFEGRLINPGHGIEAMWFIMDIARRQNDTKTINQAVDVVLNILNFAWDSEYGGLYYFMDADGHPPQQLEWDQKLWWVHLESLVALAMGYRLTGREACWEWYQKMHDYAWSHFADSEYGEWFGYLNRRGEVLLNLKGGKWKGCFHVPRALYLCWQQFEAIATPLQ

In the case of `Nc1ncnc2c1ncn2[C@@H]1O[C@H](COP(=O)(O)OP(=O)(O)OP(=O)(O)O)[C@@H](O)[C@H]1O` [ATP], on nAGE10 (10 mM ATP present versus absent, GlcNAc 15 mM, pyruvate 15 mM, allosteric activator), the “coupled AGE/NAL (AsNAL) reaction, Neu5Ac by thiobarbituric acid assay” value is reported as “In the absence of ATP, only a fraction of Neu5Ac could be synthetized from GlcNAc”.
As to “N-acetylglucosamine 2-epimerase from Nostoc sp. KVJ10 (enzyme)”, in assay [1], the stoichiometry N was determined as 2.
As to `CC(=O)N[C@H]1C(O)O[C@H](CO)[C@@H](O)[C@@H]1O` (stereo partly drawn) [GlcNAc], on nAGE10 (15 mM GlcNAc, 10 mM ATP, 15 mM pyruvate), the “coupled AGE/NAL (AsNAL) reaction, Neu5Ac by thiobarbituric acid assay” value was “The results show that the synthesis of Neu5Ac from GlcNAc is possible”.
